Data published in patent US9475779B2, “Substituted bicyclic dihydropyrimidinones and their use as inhibitors of neutrophil elastase activity” (priority 2014, dated 2016).
Where two headings read alike, the source gives them in different places.

Biological target: neutrophil elastase (Homo sapiens (Human), UniProt P08246)
Test: biochemical
Type: biochemical
[1] = Neutrophil Elastase assay, substrate MeOSuc-Ala-Ala-Pro-Val-AMC, read-out: IC50

Sequence of neutrophil elastase (P08246 whole entry, looked up): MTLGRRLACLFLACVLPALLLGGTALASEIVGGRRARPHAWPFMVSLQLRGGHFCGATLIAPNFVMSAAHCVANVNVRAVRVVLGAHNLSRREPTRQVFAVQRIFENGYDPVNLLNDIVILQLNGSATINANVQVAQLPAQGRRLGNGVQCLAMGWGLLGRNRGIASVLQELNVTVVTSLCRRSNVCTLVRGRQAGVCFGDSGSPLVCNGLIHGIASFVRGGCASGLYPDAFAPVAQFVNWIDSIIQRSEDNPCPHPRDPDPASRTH

| SMILES | IC50 [1] [nM] | further results |
| --- | --- | --- |
| N#Cc1ccc(C2NC(=O)N(c3cccc(C(F)(F)F)c3)C3=C2C(=O)CC3)c(S(=O)(=O)CCCO)c1 (stereo not shown) [Example B.1, 4-[2,5-Dioxo-1-(3-trifluoromethyl-phenyl)-2,3,4,5,6,7-hexahydro-1H-cyclopentapyrimidin-4-yl]-3-(3-hydroxy-propane-1-sulfonyl)-benzonitrile] | 2.1 |  |
| CCS(=O)(=O)c1cc(C#N)ccc1C1NC(=O)N(c2cccc(C(F)F)c2)C2=C1C(=O)CC2 (single isomer, unassigned) [Example D.5B, 4-[1-(3-Difluoromethyl-phenyl)-2,5-dioxo-2,3,4,5,6,7-hexahydro-1H-cyclopentapyrimidin-4-yl]-3-ethanesulfonyl-benzonitrile] |  | IC50 (IC50): 892 nM |
| CCS(=O)(=O)c1cc(C#N)ccc1C1NC(=O)N(c2ccnc(C(F)(F)F)c2)C2=C1C(=O)CC2 (stereo not shown) [Example D.2, 4-[2,5-Dioxo-1-(2-trifluoromethyl-pyridin-4-yl)-2,3,4,5,6,7-hexahydro-1H-cyclopentapyrimidin-4-yl]-3-ethanesulfonyl-benzonitrile] | 24 |  |
| COCCS(=O)(=O)c1cc(C#N)ccc1C1C2=C(CCC2=O)N(c2cccc(C(F)(F)F)c2)C(=O)N1C (stereo not shown) [B.1.4] | < 1 |  |
| CN1C(=O)N(c2cncc(C(F)(F)F)c2)C2=C(C(=O)CC2)C1c1ccc(C#N)cc1S(C)(=O)=O (stereo not shown) [D.3.1] | 8.8 |  |
| CS(=O)(=O)c1cc(C#N)ccc1C1NC(=O)N(c2cc(C(F)(F)F)ccn2)C2=C1C(=O)CC2 (stereo not shown) [D.2.2] | 65 |  |
| CCNC(=O)N1C(=O)N(c2cccc(C(F)(F)F)c2)C2=C(C(=O)CC2)C1c1ccc(C#N)cc1[S+](C)[O-] (stereo not shown) [Example C.3, 4-(4-Cyano-2-methanesulfinyl-phenyl)-2,5-dioxo-1-(3-trifluoromethyl-phenyl)-1,2,4,5,6,7-hexahydro-cyclopentapyrimidine-3-carboxylic acid ethylamide] | < 1 |  |
| CCNC(=O)N1C(=O)N(c2cncc(C(F)(F)F)c2)C2=C(C(=O)CC2)C1c1ccc(C#N)cc1S(C)(=O)=O (stereo not shown) [D.4.3] | < 1 |  |
| CS(=O)(=O)c1cc(C#N)ccc1C1NC(=O)N(c2cncc(Cl)c2)C2=C1C(=O)CC2 (stereo not shown) [D.2.4] | 103 |  |
| CC[S+]([O-])c1cc(C#N)ccc1C1C2=C(CCC2=O)N(c2cccc(C(F)(F)F)c2)C(=O)N1C(=O)NC (single isomer, unassigned) [Example C.6.1, 4-(4-Cyano-2-ethanesulfinyl-phenyl)-2,5-dioxo-1-(3-trifluoromethyl-phenyl)-1,2,4,5,6,7-hexahydro-cyclopentapyrimidine-3-carboxylic acid methylamide] |  | IC50 (read-out: IC50): < 1 nM |
| CN1C(=O)N(c2cccc(C(F)(F)F)c2)C2=C(C(=O)CC2)C1c1ccc(C#N)cc1CO (stereo not shown) [Example A.1, 3-Hydroxymethyl-4-[3-methyl-2,5-dioxo-1-(3-trifluoromethyl-phenyl)-2,3,4,5,6,7-hexahydro-1H-cyclopentapyrimidin-4-yl]-benzonitrile] |  | IC50 (read-out: IC50): 1.6 nM |
| CN1C(=O)N(c2cncc(Br)c2)C2=C(C(=O)CC2)C1c1ccc(C#N)cc1S(C)(=O)=O (stereo not shown) [D.3.3] | 13 |  |
| CNC(=O)N1C(=O)N(c2cncc(Br)c2)C2=C(C(=O)CC2)C1c1ccc(C#N)cc1S(C)(=O)=O (stereo not shown) [D.4.6] | 1.2 |  |
| CCNC(=O)N1C(=O)N(c2ccnc(C(F)(F)F)c2)C2=C(C(=O)CC2)C1c1ccc(C#N)cc1S(=O)(=O)CC (racemic) [Example D.4.1, 4-(4-cyano-2-ethanesulfonyl-phenyl)-2,5-dioxo-1-(2-trifluoromethyl-pyridin-4-yl)-1,2,4,5,6,7-hexahydro-cyclopentapyrimidine-3-carboxylic acid ethylamide] |  | IC50 (IC50): < 1 nM |
| CS(=O)(=O)c1cc(C#N)ccc1C1NC(=O)N(c2cncc(Br)c2)C2=C1C(=O)CC2 (stereo not shown) [D.2.3] | 101 |  |
| CN1C(=O)N(c2cccc(C(F)(F)F)c2)C2=C(C(=O)CC2)C1c1ccc(C#N)cc1CO (single isomer, unassigned) [Example A.1B, 3-Hydroxymethyl-4-[3-methyl-2,5-dioxo-1-(3-trifluoromethyl-phenyl)-2,3,4,5,6,7-hexahydro-1H-cyclopentapyrimidin-4-yl]-benzonitrile] |  | IC50 (IC50): 2780 nM |
